Test results as given in the supplement of paper PMC10307832.

Experiments:
Test in all cases: relative viability (nuclei count vs DMSO), 5 days (fraction); higher = more cells survive
[1] = compound: CN(C)CC1=CC(=CC=C1)N=C(C2=CC=CC=C2)C3=C(NC4=C3C=CC(=C4)C(=O)N(C)C)O + Cc1cc(Nc2cc(N3CCN(C)CC3)nc(Sc3ccc(NC(=O)C4CC4)cc3)n2)n[nH]1 [Tozasertib] (partner 0.1 µM)
Summary of the method: (§1)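 Relative viability equals treated-well nuclei counts divided by vehicle-well nuclei counts. Counts came from 4× images of lung cancer cell lines grown in 1536-well plates for 5 days after pin-tool dosing on the day after seeding. Dosing used one drug alone or a fixed anchor-drug dose plus five library-drug doses (not always all listed) in √10 steps, and values are medians of duplicate plates.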

[2] = compound: CN(C)CC1=CC(=CC=C1)N=C(C2=CC=CC=C2)C3=C(NC4=C3C=CC(=C4)C(=O)N(C)C)O + C[C@@H](Oc1cc(-c2cnn(C3CCNCC3)c2)cnc1N)c1c(Cl)ccc(F)c1Cl [Crizotinib] (partner 1 µM)
Summary of the method: as §1

[3] = compound: CN(C)CC1=CC(=CC=C1)N=C(C2=CC=CC=C2)C3=C(NC4=C3C=CC(=C4)C(=O)N(C)C)O + COc1cccc2cc(-c3nc([C@H]4CC[C@H](C(=O)O)CC4)n4ncnc(N)c34)[nH]c12 [OSI-027] (partner 0.5 µM)
Summary of the method: as §1

[4] = compound: CN(C)CC1=CC(=CC=C1)N=C(C2=CC=CC=C2)C3=C(NC4=C3C=CC(=C4)C(=O)N(C)C)O + C[C@]1(O)C[C@@H](c2nc(-c3ccc4ccc(-c5ccccc5)nc4c3)c3c(N)nccn32)C1 [Linsitinib] (partner 1 µM)
Summary of the method: as §1

Row | Cell Line | relative viability ([1]; first compound 0.08 µM) | relative viability ([1]; first compound 0.253 µM) | relative viability ([1]; first compound 0.8 µM) | relative viability ([1]; first compound 2.53 µM) | relative viability ([1]; first compound 8 µM) | relative viability ([2]; first compound 0.08 µM) | relative viability ([2]; first compound 0.253 µM) | relative viability ([2]; first compound 0.8 µM) | relative viability ([2]; first compound 2.53 µM) | relative viability ([2]; first compound 8 µM) | relative viability ([3]; first compound 0.08 µM) | relative viability ([3]; first compound 0.253 µM) | relative viability ([3]; first compound 0.8 µM) | relative viability ([3]; first compound 2.53 µM) | relative viability ([3]; first compound 8 µM) | relative viability ([4]; first compound 0.08 µM) | relative viability ([4]; first compound 0.253 µM) | relative viability ([4]; first compound 0.8 µM) | relative viability ([4]; first compound 2.53 µM) | relative viability ([4]; first compound 8 µM)
1 | A-427 | 0.22 | 0.188 | 0.182 | 0.213 | 0.147 | 0.984 | 0.82 | 0.865 | 0.855 | 0.719 | 0.472 | 0.429 | 0.497 | 0.509 | 0.36 | 1.08 | 1.1 | 1.13 | 1.01 | 1.06
2 | NCI-H460 | 0.292 | 0.574 | 0.62 | 0.426 | 0.397 | 0.824 | 0.811 | 0.998 | 0.819 | 0.733 | 0.615 | 0.727 | 0.824 | 0.65 | 0.335 | 0.841 | 0.758 | 0.893 | 0.471 | 0.54
3 | HCC-44 | 1.08 | 0.836 | 1.03 | 0.927 | 0.862 | 0.801 | 0.752 | 0.785 | 0.727 | 0.89 | 0.67 | 0.584 | 0.6 | 0.392 | 0.533 | 0.67 | 0.683 | 0.641 | 0.613 | 0.664
4 | NCI-H2009 | 0.767 | 0.723 | 0.721 | 0.551 | 0.699 | 1.11 | 1.03 | 1.09 | 1.01 | 1 | 0.507 | 0.693 | 0.764 | 0.616 | 0.467 | 1.19 | 1.21 | 1.21 | 1.12 | 1.19
5 | NCI-H2085 | 0.862 | 0.901 | 0.793 | 0.781 | 0.829 | 0.849 | 0.903 | 0.702 | 0.947 | 1.03 | 0.856 | 1.15 | 0.582 | 0.955 | 0.768 | 0.897 | 0.844 | 0.875 | 0.92 | 0.916
6 | LOU-NH91 | 0.68 | 0.673 | 0.54 | 0.642 | 0.629 | 0.777 | 0.723 | 0.689 | 0.746 | 0.712 | 0.691 | 0.713 | 0.561 | 0.762 | 0.689 | 0.975 | 0.946 | 0.68 | 0.925 | 0.952
7 | NCI-H1734 | 0.259 | 0.262 | 0.227 | 0.268 | 0.247 | 0.7 | 0.651 | 0.597 | 0.667 | 0.557 | 0.599 | 0.6 | 0.56 | 0.561 | 0.577 | 0.763 | 0.911 | 0.957 | 0.9 | 0.762
8 | H3255 | 0.528 | 0.575 | 0.65 | 0.71 | 0.484 | 0.958 | 0.782 | 0.756 | 0.795 | 0.85 | 0.649 | 0.592 | 0.698 | 0.682 | 0.632 | 0.881 | 0.959 | 0.924 | 0.954 | 1.03
9 | NCI-H2087 | 0.242 | 0.233 | 0.265 | 0.27 | 0.233 | 0.817 | 0.838 | 0.828 | 0.72 | 0.872 | 0.552 | 0.668 | 0.569 | 0.542 | 0.367 | 0.981 | 1.01 | 1.06 | 0.828 | 0.966
10 | BEN | 0.619 | 0.493 | 0.5 | 0.426 | 0.538 | 0.791 | 0.739 | 0.866 | 0.876 | 0.641 | 0.286 | 0.31 | 0.25 | 0.306 | 0.289 | 0.98 | 0.876 | 0.793 | 0.846 | 0.75
11 | COR-L23 | 0.185 | 0.226 | 0.201 | 0.205 | 0.154 | 0.675 | 0.603 | 0.622 | 0.532 | 0.553 | 0.722 | 0.788 | 0.818 | 0.741 | 0.732 | 1.06 | 0.889 | 1.07 | 0.878 | 0.759
12 | ABC-1 | 0.198 | 0.173 | 0.15 | 0.179 | 0.171 | 1.17 | 1.12 | 1.01 | 0.764 | 0.891 | 0.433 | 0.504 | 0.442 | 0.568 | 0.447 | 0.773 | 0.965 | 0.709 | 0.728 | 0.73
13 | HCC-366 | 0.17 | 0.133 | 0.131 | 0.153 | 0.118 | 0.484 | 0.503 | 0.513 | 0.47 | 0.558 | 0.999 | 1.1 | 0.971 | 0.878 | 0.414 | 0.737 | 0.602 | 0.657 | 0.473 | 0.354
14 | SK-LU-1 | 0.262 | 0.327 | 0.33 | 0.351 | 0.295 | 1 | 1.08 | 0.982 | 0.825 | 0.613 | 0.373 | 0.366 | 0.429 | 0.346 | 0.244 | 1.05 | 1.2 | 1.27 | 1.17 | 0.77
15 | NCI-H2023 | 0.333 | 0.342 | 0.291 | 0.307 | 0.343 | 0.797 | 0.698 | 0.67 | 0.563 | 0.498 | 0.321 | 0.468 | 0.488 | 0.318 | 0.335 | 0.625 | 0.607 | 0.533 | 0.563 | 0.625
16 | NCI-H358 | 0.105 | 0.0937 | 0.0915 | 0.096 | 0.116 | 0.506 | 0.501 | 0.513 | 0.484 | 0.443 | 0.824 | 0.706 | 0.633 | 0.671 | 0.549 | 0.779 | 0.715 | 0.673 | 0.621 | 0.464
17 | NCI-H1651 | 0.621 | 0.755 | 0.71 | 0.595 | 0.692 | 0.884 | 0.844 | 0.873 | 0.835 | 0.822 | 0.846 | 0.874 | 0.731 | 0.645 | 0.783 | 0.88 | 1.2 | 0.923 | 0.789 | 0.801
18 | EKVX | 0.445 | 0.387 | 0.459 | 0.378 | 0.323 | 0.842 | 0.921 | 1.03 | 0.879 | 0.981 | 0.718 | 0.726 | 0.781 | 0.764 | 0.739 | 1.1 | 0.925 | 1.05 | 1.06 | 1.07
19 | NCI-H1993 | 0.623 | 0.525 | 0.524 | 0.584 | 0.646 | 0.761 | 0.845 | 0.628 | 0.89 | 0.876 | 0.529 | 0.581 | 0.567 | 0.531 | 0.598 | 0.716 | 0.787 | 0.7 | 0.737 | 0.799
20 | SW 1573 | 0.292 | 0.172 | 0.149 | 0.176 | 0.152 | 0.842 | 0.854 | 0.672 | 0.866 | 0.794 | 0.581 | 0.644 | 0.626 | 0.638 | 0.521 | 0.735 | 0.829 | 0.731 | 0.73 | 0.731
21 | LXF-289 | 0.174 | 0.19 | 0.137 | 0.159 | 0.197 | 0.871 | 0.762 | 0.758 | 0.773 | 0.757 | 0.769 | 0.731 | 0.707 | 0.713 | 0.639 | 0.935 | 0.931 | 0.955 | 0.857 | 0.915
22 | NCI-H3122 | 0.416 | 0.359 | 0.448 | 0.383 | 0.438 | 0.281 | 0.286 | 0.246 | 0.318 | 0.29 | 1.01 | 0.962 | 1.41 | 1.06 | 0.933 | 1.08 | 1.05 | 1.08 | 0.972 | 1.05
23 | NCI-H23 | 0.355 | 0.454 | 0.413 | 0.411 | 0.366 | 0.376 | 0.538 | 0.503 | 0.483 | 0.417 | 0.609 | 0.696 | 0.518 | 0.683 | 0.378 | 0.628 | 0.73 | 0.598 | 0.554 | 0.531
24 | HOP-62 | 0.389 | 0.383 | 0.364 | 0.334 | 0.376 | 0.927 | 0.907 | 1.09 | 1.06 | 0.882 | 0.852 | 0.847 | 0.827 | 0.769 | 0.799 | 1.11 | 1.08 | 0.99 | 1.1 | 1.16
25 | NCI-H441 | 0.625 | 0.603 | 0.67 | 0.634 | 0.588 | 0.463 | 0.748 | 1.04 | 0.627 | 0.629 | 0.522 | 0.703 | 0.74 | 0.568 | 0.39 | 0.593 | 0.539 | 0.507 | 0.496 | 0.418
26 | LC-2-ad | 0.503 | 0.409 | 0.415 | 0.492 | 0.407 | 0.406 | 0.402 | 0.486 | 0.4 | 0.441 | 0.935 | 0.73 | 0.867 | 0.732 | 0.614 | 0.844 | 0.745 | 0.884 | 0.808 | 0.593
27 | HCC-78 | 0.507 | 0.426 | 0.403 | 0.383 | 0.364 | 0.327 | 0.282 | 0.297 | 0.34 | 0.372 | 0.394 | 0.406 | 0.508 | 0.406 | 0.377 | 0.62 | 0.452 | 0.475 | 0.535 | 0.511
